# Test results reported in ChEMBL document CHEMBL3351747, “Structure-based design of β1i or β5i specific inhibitors of human immunoproteasomes” (J Med Chem, 2014).
# Legend:
# [1] = system: Raji; experiment: Ratio of IC50 for 20s proteasome subunit beta-1c to IC50 for proteasome subunit beta-1i in human Raji cells; assay type: cell-based
# [2] = Inhibition of 20s proteasome subunit beta-1c in human Raji cells using BODIPY- epoxomicin by fluorescent densitometry; assay type: cell-based
# [3] = biological target: T1, Proteasome subunit beta type-9 (Homo sapiens, UniProt P28065); experiment: Inhibition of proteasome subunit beta-1i in human Raji cells using BODIPY- epoxomicin by fluorescent densitometry; assay type: cell-based
# T1 sequence (P28065 whole entry): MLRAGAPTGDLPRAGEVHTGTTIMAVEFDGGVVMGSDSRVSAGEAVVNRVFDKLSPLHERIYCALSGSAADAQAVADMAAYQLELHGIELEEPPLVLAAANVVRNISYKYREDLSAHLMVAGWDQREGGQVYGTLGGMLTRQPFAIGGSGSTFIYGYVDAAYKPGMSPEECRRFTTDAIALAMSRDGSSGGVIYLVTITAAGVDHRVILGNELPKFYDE
# [4] = biological target: T2, Proteasome subunit beta type-8 (Homo sapiens, UniProt P28062); experiment: Inhibition of proteasome subunit beta-5i in human Raji cells using BODIPY-NC005 by fluorescent densitometry; assay type: cell-based
# T2 sequence (P28062 whole entry): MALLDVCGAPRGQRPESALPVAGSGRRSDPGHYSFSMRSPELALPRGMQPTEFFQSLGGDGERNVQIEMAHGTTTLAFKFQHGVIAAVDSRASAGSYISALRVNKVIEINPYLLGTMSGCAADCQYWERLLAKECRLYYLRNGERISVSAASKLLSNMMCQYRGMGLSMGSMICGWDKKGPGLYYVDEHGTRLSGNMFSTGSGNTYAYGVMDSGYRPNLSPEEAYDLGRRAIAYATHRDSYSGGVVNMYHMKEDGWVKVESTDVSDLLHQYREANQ
# [5] = Inhibition of 20s proteasome subunit beta-5c in human Raji cells using BODIPY-NC005 by fluorescent densitometry; assay type: cell-based
# [6] = biological target: T2, Proteasome subunit beta type-8; experiment: Inhibition of proteasome subunit beta-5i in human RPMI8226 cells using BODIPY-NC005 by fluorescent densitometry; assay type: cell-based, RPMI-8226
# [7] = biological target: T1, Proteasome subunit beta type-9; experiment: Inhibition of proteasome subunit beta-1i in human RPMI8226 cells using BODIPY-NC001 by fluorescent densitometry; assay type: cell-based, RPMI-8226
SMILES,IC50 [3],IC50 [4],IC50 [5],other results
CCCC[C@H](NC(=O)[C@@H]1C[C@@H](O)CN1C(=O)[C@H](C)NC(=O)CN=[N+]=[N-])C(=O)N[C@@H](CC(C)C)C(=O)[C@@]1(C)CO1,0.17 µM,–,–,Ratio IC50 [1]: 5; IC50 [2]: 0.86 µM
CC1=C(C(=O)N[C@H](C)C(=O)N[C@@H](Cc2c[nH]c3ccccc23)C(=O)N[C@@H](Cc2ccc(-c3ccccc3)cc2)C(=O)[C@@]2(C)CO2)Cc2ccccc21,–,0.005 µM,0.079 µM,–
C[C@@H](NC(=O)CN1CCOCC1)C(=O)N[C@@H](Cc1c[nH]c2ccccc12)C(=O)N[C@@H](Cc1ccccc1)C(=O)[C@@]1(C)CO1,–,0.013 µM,0.104 µM,–
COc1ccc(C[C@H](NC(=O)[C@H](C)NC(=O)CN2CCOCC2)C(=O)N[C@@H](Cc2cccc3ccccc23)C(=O)[C@@]2(C)CO2)cc1,–,0.244 µM,1.8 µM,–
COc1ccc(C[C@H](NC(=O)[C@@H](C)NC(=O)CN2CCOCC2)C(=O)N[C@@H](Cc2ccccc2)C(=O)[C@@]2(C)CO2)cc1,–,–,0.116 µM,–
COc1ccc(C[C@H](NC(=O)[C@H](C)NC(=O)CN2CCOCC2)C(=O)N[C@H](/C=C/S(C)(=O)=O)CC2CCCCC2)cc1,–,5.7 µM,> 100 µM,–
CCCC[C@H](NC(=O)[C@@H]1CCN1C(=O)[C@H](C)NC(=O)CN=[N+]=[N-])C(=O)N[C@@H](CC(C)C)C(=O)[C@@]1(C)CO1,0.096 µM,–,–,Ratio IC50 [1]: 0.6; IC50 [2]: 0.054 µM
CCCC[C@H](NC(=O)[C@@H]1CCCCN1C(=O)[C@H](C)NC(=O)CN=[N+]=[N-])C(=O)N[C@@H](CC(C)C)C(=O)[C@@]1(C)CO1,0.067 µM,–,–,Ratio IC50 [1]: 3.7; IC50 [2]: 0.25 µM
COc1ccc(C[C@H](NC(=O)[C@@H](C)NC(=O)C2=C(C)c3ccccc3C2)C(=O)N[C@@H](Cc2ccccc2)C(=O)[C@@]2(C)CO2)cc1,–,0.003 µM,0.157 µM,–
COc1ccc(C[C@H](NC(=O)[C@H](C)NC(=O)C2=C(C)c3ccccc3C2)C(=O)N[C@@H](Cc2ccccc2)C(=O)[C@@]2(C)CO2)cc1,–,0.005 µM,0.006 µM,–
COc1ccc(C[C@H](NC(=O)[C@H](C)NC(=O)CN2CCOCC2)C(=O)N[C@@H](Cc2ccc(-c3ccccc3)cc2)C(=O)[C@@]2(C)CO2)cc1,–,0.002 µM,0.02 µM,–
COc1ccc(C[C@H](NC(=O)[C@H](C)NC(=O)CN2CCOCC2)C(=O)N[C@@H](Cc2ccc3ccccc3c2)C(=O)[C@@]2(C)CO2)cc1,–,0.0031 µM,0.097 µM,–
COc1ccc(C[C@H](NC(=O)[C@@H](C)NC(=O)CN2CCOCC2)C(=O)N[C@@H](CC2CCCCC2)C(=O)[C@@]2(C)CO2)cc1,> 10 µM,0.036 µM,–,IC50 [6]: 0.1 µM; IC50 [7]: 7.3 µM
COc1ccc(C[C@H](NC(=O)[C@H](C)NC(=O)CN2CCOCC2)C(=O)N[C@@H](CC23CC4CC(CC(C4)C2)C3)C(=O)[C@@]2(C)CO2)cc1,–,> 50 µM,> 50 µM,–
CCCC[C@H](NC(=O)[C@@H]1C[C@@H](F)CN1C(=O)[C@H](C)NC(=O)CN=[N+]=[N-])C(=O)N[C@@H](CC(C)C)C(=O)[C@@]1(C)CO1,0.022 µM,–,–,Ratio IC50 [1]: 3; IC50 [2]: 0.066 µM
COc1ccc(C[C@H](NC(=O)[C@H](C)NC(=O)C2=C(C)c3ccccc3C2)C(=O)N[C@@H](CC2CCCCC2)C(=O)[C@@]2(C)CO2)cc1,–,0.003 µM,0.0145 µM,–
CCCC[C@H](NC(=O)[C@@H]1CC(F)(F)CN1C(=O)[C@H](C)NC(=O)CN=[N+]=[N-])C(=O)N[C@@H](CC(C)C)C(=O)[C@@]1(C)CO1,0.034 µM,–,–,Ratio IC50 [1]: 10.5; IC50 [2]: 0.36 µM
